In assay [1] the test system is Mice fasted overnight, glucose loaded. Description: Antidiabetic effect (II): plasma glucose after glucose loading in fasted mice, glibenclamide and β3 agonist. Format: in vivo. Conditions: 1 hour after glucose load (1 g/kg s.c.), oral GLI 10 mg/kg, compound a 10 mg/kg, d 0.3 mg/kg, e, g 3 mg/kg, i 1 mg/kg, vs glucose loading only. Here is the method: Mice fasted overnight were orally administered with glibenclamide (GLI: 10 mg/kg), a β3 agonist (compound a: 10 mg/kg; compound c: 0.3 mg/kg; compound d: 0.3 mg/kg; compound e: 3 mg/kg; compound g: 3 mg/kg; compound h: 1 mg/kg; compound i: 1 mg/kg), or GLI and a β3 agonist (compound a, compound c, compound d, compound e, compound g, compound h, and compound i) in combination (each dosage was the same as the aforementioned), and immediately glucose (1 g/kg, subcutaneous injection) was loaded. Blood was collected after 1 hour, and the amount of glucose contained in blood plasma was measured.
In this combined use, hypoglycemia, which is a side effect of glibenclamide, was not observed.

For assay [2], the system named is Mice induced with obesity by feeding with a high fat diet. Description: Antiobestic effect (I): body weight of high fat diet obese mice, sibutramine and β3 agonist. Conditions: oral, 2 weeks; SIB 1 mg/kg; compound c, d 0.3 mg/kg; e, g 3 mg/kg; h, i 1 mg/kg; alone or combined at same doses. It counts as in vivo. The procedure:
Mice induced with obesity by feeding with a high fat diet for 2 months were orally administered with sibutramine (SIB: 1 mg/kg), a β3 agonist (compound c: 0.3 mg/kg; compound d: 0.3 mg/kg; compound e: 3 mg/kg; compound g: 3 mg/kg; compound h: 1 mg/kg; compound i: 1 mg/kg), or SIB and a β3 agonist (compound c, compound d, compound e, compound g, compound h, and compound i) in combination (each dosage was the same as the aforementioned) for 2 weeks and bred, and body weight was measured.

The test system of assay [3] is Mice. The assay is described as follows: Antidiabetic effect: plasma glucose in mice, insulin and β3 agonist. It counts as in vivo. Conditions: 30 min after dosing; INS 0.2 U/kg intraperitoneal; oral compound a 10 mg/kg; c, d 0.3 mg/kg; e, g 3 mg/kg; h, i 1 mg/kg; alone or combined. The procedure: Mice were administered with insulin (INS: 0.2 U/kg, intraperitoneal injection), a β3 agonist (oral administration of compound a: 10 mg/kg; compound c: 0.3 mg/kg; compound d: 0.3 mg/kg; compound e: 3 mg/kg; compound g: 3 mg/kg; compound h: 1 mg/kg; compound i: 1 mg/kg, respectively), or INS and a β3 agonist (compound a, compound c, compound d, compound e, compound g, compound h, and compound i) in combination (each dosage and administration route was the same as the aforementioned), blood was collected after 30 min, and the amount of glucose contained in blood plasma was measured.

Assay [4] concerns human urinary bladder compression muscle. Description: Relaxation of carbachol-contracted human urinary bladder compression muscle. It counts as cell-based. Conditions: for relaxation of bladder compression muscle, combination with propiverine: 10^−6 M propiverine plus compound (a, b, f, g 10^−9 M; c, d 10^−10 M; e, h, i 10^−8 M); for relaxation of bladder compression muscle, combination with propiverine / relaxation of bladder compression muscle, combination with oxybutynin / relaxation of bladder compression muscle, combination with tolterodine: in comparison with each compound alone; for relaxation of bladder compression muscle, combination with oxybutynin: 10^−9 M oxybutynin plus compound (a, b, f, g 10^−9 M; c 10^−10 M; e, h, i 10^−8 M); for relaxation of bladder compression muscle, combination with tolterodine: 10^−9 M tolterodine plus compound (a, b, f, g 10^−9 M; d 10^−10 M; e, h, i 10^−8 M); for concentration at which the bladder compression muscle was significantly relaxed / concentration at which the muscle was not relaxed significantly: contraction provoked by carbachol (0.5×10^−6 M), each compound alone.

Assay [5] has as its system Genetically diabetic mice. Description: Antidiabetic effect (IV): genetically diabetic mice, acarbose and β3 agonist. Format: in vivo. Conditions: oral, 2 weeks; ACA 1 mg/kg; compound c, d 0.3 mg/kg; e, g 3 mg/kg; h, i 1 mg/kg; alone or combined.
Experimental: Genetically diabetic mice were orally administered with acarbose (ACA: 1 mg/kg), a β3 agonist (compound c: 0.3 mg/kg; compound d: 0.3 mg/kg; compound e: 3 mg/kg; compound g: 3 mg/kg; compound h: 1 mg/kg; compound i: 1 mg/kg), or ACA and a β3 agonist (compound c, compound d, compound e, compound g, compound h, and compound i) in combination (each dosage was the same as the aforementioned) for 2 weeks. Blood was collected thereafter, and the amount of glucose contained in blood plasma was measured.
Assay [6] has as its system Mice induced with obesity by feeding with a high fat diet. Description: Antiobestic effect (II): body weight of high fat diet obese mice, orlistat and β3 agonist. It counts as in vivo. Conditions: oral, 2 weeks; orlistat 1 mg/kg; compound c, d 0.3 mg/kg; e, g 3 mg/kg; h, i 1 mg/kg; alone or combined at same doses. The procedure: Mice induced with obesity by feeding with a high fat diet for 2 months were orally administered with orlistat (1 mg/kg), a β3 agonist (compound c: 0.3 mg/kg; compound d: 0.3 mg/kg; compound e: 3 mg/kg; compound g: 3 mg/kg; compound h: 1 mg/kg; compound i: 1 mg/kg), or orlistat and a β3 agonist (compound c, compound d, compound e, compound g, compound h, and compound i) in combination (each dosage was the same as the aforementioned) for 2 weeks and bred, and body weight was measured.

In assay [7] the test system is Mice. Description: Antilipemic effect (II): plasma triglyceride in mice, bezafibrate and β3 agonist. It counts as in vivo. Conditions: oral, 2 weeks; administered solely: BEZ 3 mg/kg; compound c, d 0.3 mg/kg; e, g 3 mg/kg; h, i 1 mg/kg.
Experimental: Mice were orally administered with bezafibrate (BEZ: 3 mg/kg), a β3 agonist (compound c: 0.3 mg/kg; compound d: 0.3 mg/kg; compound e: 3 mg/kg; compound g: 3 mg/kg; compound h: 1 mg/kg; compound i: 1 mg/kg), or BEZ and a β3 agonist (compound c, compound d, compound e, compound g, compound h, and compound i) in combination (each dosage was the same as the aforementioned) for 2 weeks. Blood was collected thereafter, and the amount of triglyceride contained in blood plasma was measured.
In assay [8] the test system is Genetically diabetic mice. Description: Antidiabetic effect (III): genetically diabetic mice, rosiglitazone and β3 agonist. It counts as in vivo. Conditions: oral, 2 weeks; ROS 1 mg/kg; compound c, d 0.3 mg/kg; e, g 3 mg/kg; h, i 1 mg/kg; alone or combined. Here is the method: Genetically diabetic mice were orally administered with rosiglitazone (ROS: 1 mg/kg), a β3 agonist (compound c: 0.3 mg/kg; compound d: 0.3 mg/kg; compound e: 3 mg/kg; compound g: 3 mg/kg; compound h: 1 mg/kg; compound i: 1 mg/kg), or ROS and a β3 agonist (compound c, compound d, compound e, compound g, compound h, and compound i) in combination (each dosage was the same as the aforementioned) for 2 weeks. Blood was collected thereafter, and the amount of glucose contained in blood plasma was measured.

On to `COc1ccc(Cl)cc1C(=O)NCCc1ccc(S(=O)(=O)NC(=O)NC2CCCCC2)cc1` [GLI, glibenclamide, reference compound], for which the “blood glucose level (glucose in blood plasma)” value (shortened to “blood glucose level”) in assay [1] was “almost no difference in the blood glucose level”.
`CC(C)CC(N(C)C)C1(c2ccc(Cl)cc2)CCC1` (stereo not drawn) [SIB, sibutramine, reference compound]: in assay [2], the body weight entry was “almost no change in body weight”.
Consider `CS(=O)(=O)Nc1cccc([C@@H](O)CNCCOc2ccc3c(c2)[nH]c2cc(O)ccc23)c1` [compound a, (R)-N-[3-[2-[2-(7-hydroxy-9H-carbazole-2-iloxy)ethylamino]-1-hydroxyethyl]phenyl]methanesulfonamide], for which the “blood glucose level” value in assay [1] is recorded as “almost no difference in the blood glucose level”. Moreover, the “blood glucose level” value in the assay with Mice [3] is “no change in blood glucose level”. In assay [4], the “relaxation of bladder compression muscle, combination with propiverine” value (shortened to “relaxation … with propiverine”) is reported as “relaxed significantly”; the “relaxation of bladder compression muscle, combination with oxybutynin” value (shortened to “relaxation … with oxybutynin”) is “relaxed significantly”; the “relaxation of bladder compression muscle, combination with tolterodine” value (from here on “relaxation … with tolterodine”) is listed as “relaxed significantly”; the “concentration at which the bladder compression muscle was significantly relaxed” value was 10^−7 M. Further, the “concentration at which the muscle was not relaxed significantly” value in assay [4] is listed as 10^−9 M.
Consider `CS(=O)(=O)Nc1cc([C@@H](O)CNCCOc2ccc3c4c([nH]c3c2)CCCC4)ccc1O` [compound b, (R)-N-[5-[2-[2-(5,6,7,8-tetrahydro-9H-carbazole-2-iloxy)ethylamino]-1-hydroxyethyl]-2-hydroxyphenyl]methanesulfonamide], for which, in assay [4], the “relaxation … with propiverine” value was “relaxed significantly”; the “relaxation … with oxybutynin” value is on record as “relaxed significantly”; the “relaxation … with tolterodine” value was “relaxed significantly”; the “concentration at which the bladder compression muscle was significantly relaxed” value was 10^−7 M. Moreover, in assay [4], the “concentration at which the muscle was not relaxed significantly” value is on record as 10^−9 M.
Take `CS(=O)(=O)Nc1cc([C@@H](O)CNCCOc2ccc3c(c2)sc2ccccc23)ccc1O` [compound c, (R)-N-[5-[2-[2-(dibenzothiophene-3-iloxy)ethylamino]-1-hydroxyethyl]-2-hydroxyphenyl]methanesulfonamide]: the “blood glucose level” value in assay [5] is listed as “no difference”; in assay [1] it was “almost no difference in the blood glucose level”; in the assay with Mice [3], “no change in blood glucose level”; in assay [8], “no difference in the blood glucose level”. Also, the body weight result in assay [2] and in assay [6] was “almost no change in body weight” throughout. Further, the plasma triglyceride level result in the assay with Mice [7] is recorded as “no difference”. In addition, in assay [4], the “relaxation … with propiverine” value is reported as “relaxed significantly”. Besides, the “relaxation … with oxybutynin” value in assay [4] is listed as “relaxed significantly”. In addition, the “relaxation … with tolterodine” value in assay [4] was “relaxed significantly”. Also, the “concentration at which the bladder compression muscle was significantly relaxed” value in assay [4] is recorded as 10^−8 M. Also, the “concentration at which the muscle was not relaxed significantly” value in assay [4] is given as 10^−10 M.
For the molecule `CS(=O)(=O)Nc1cc([C@@H](O)CNCCOc2ccc3c(c2)[nH]c2ccccc23)ccc1O` [compound d, (R)-N-[5-[2-[2-(9H-carbazole-2-iloxy)ethylamino]-1-hydroxyethyl]-2-hydroxyphenyl]methanesulfonamide], the “blood glucose level” value in assay [5] is reported as “no difference”. Besides, the body weight result in assay [2] is “almost no change in body weight”. Besides, the “blood glucose level” value in assay [1] is on record as “almost no difference in the blood glucose level”. In addition, the “blood glucose level” value in the assay with Mice [3] was “no change in blood glucose level”. Besides, the body weight result in assay [6] is on record as “almost no change in body weight”. Further, in the assay on Mice [7], the plasma triglyceride level entry is “no difference”. Moreover, in assay [4], the “relaxation … with propiverine” value is given as “relaxed significantly”; the “relaxation … with oxybutynin” value was “relaxed significantly”; the “relaxation … with tolterodine” value was “relaxed significantly”; the “concentration at which the bladder compression muscle was significantly relaxed” value was 10^−8 M. In addition, in assay [4], the “concentration at which the muscle was not relaxed significantly” value is 10^−10 M. Further, the “blood glucose level” value in assay [8] is given as “no difference in the blood glucose level”.
Take `CS(=O)(=O)Nc1cccc([C@@H](O)CNCCOc2ccc3c(c2)[nH]c2ccccc23)c1` [compound e, (R)-N-[3-[2-[2-(9H-carbazole-2-iloxy)ethylamino]-1-hydroxyethyl]phenyl]methanesulfonamide]: the “blood glucose level” value in assay [5] is “no difference”. In addition, in assay [2], the body weight result is listed as “almost no change in body weight”. The “blood glucose level” value in assay [1] is “almost no difference in the blood glucose level”. In addition, the “blood glucose level” value in the assay on Mice [3] is on record as “no change in blood glucose level”. In addition, in assay [6], the body weight result is given as “almost no change in body weight”. In the assay with Mice [7], the plasma triglyceride level entry is “no difference”. Besides, in assay [4], the “relaxation … with propiverine” value is “relaxed significantly”; the “relaxation … with oxybutynin” value is given as “relaxed significantly”; the “relaxation … with tolterodine” value is given as “relaxed significantly”; the “concentration at which the bladder compression muscle was significantly relaxed” value is listed as 10^−6 M. Further, the “concentration at which the muscle was not relaxed significantly” value in assay [4] was 10^−8 M. In addition, the “blood glucose level” value in assay [8] is reported as “no difference in the blood glucose level”.
`CN(C)S(=O)(=O)Nc1cc([C@@H](O)CNCCOc2ccc3c(c2)[nH]c2ccccc23)ccc1O` [compound f, (R)-N′-[5-[2-[2-(9H-carbazole-2-iloxy)ethylamino]-1-hydroxyethyl]-2-hydroxyphenyl]-N,N-dimethyl sulfonyl amide]: in assay [4], the “relaxation … with propiverine” value is “relaxed significantly”; the “relaxation … with oxybutynin” value is given as “relaxed significantly”; the “relaxation … with tolterodine” value was “relaxed significantly”; the “concentration at which the bladder compression muscle was significantly relaxed” value is 10^−7 M. For the same molecule, in assay [4], the “concentration at which the muscle was not relaxed significantly” value was 10^−9 M.
In the case of `CCCCCCCCCCC[C@@H](C[C@@H]1OC(=O)[C@H]1CCCCCC)OC(=O)[C@H](CC(C)C)NC=O` [orlistat, reference compound], in assay [6], the body weight entry is listed as “almost no change in body weight”.
In the case of insulin [reference compound], in the assay on Mice [3], the “blood glucose level” value was “no change in blood glucose level”.

Values taken from patent publication US20030018061A1, “Novel remedies with the use of beta 3 agonist” (priority 2000, published 2003).
